Results reported in the NIST ThermoML archive (doi:10.1016/j.tca.2015.01.022).
Values joined by “and” are separate entries in the source; they are usually repeats but may differ in a detail not shown here. Equal values may be shown once.

Test: molar heat capacity at constant pressure
Details: 101.33 kPa, Small (less than 1 g) adiabatic calorimetry

CCCCCCCC[n+]1ccn(C)c1.F[B-](F)(F)F [1-methyl-3-octylimidazolium tetrafluoroborate]
molar heat capacity at constant pressure
Details	Crystal	Glass
5 K	1.51 J/K/mol	1.78 J/K/mol
5.07 K	–	1.855 J/K/mol
5.13 K	1.622 J/K/mol	–
5.35 K	–	2.152 J/K/mol
5.41 K	1.892 J/K/mol	–
5.63 K	–	2.475 J/K/mol
5.69 K	2.194 J/K/mol	–
5.92 K	–	2.835 J/K/mol
5.98 K	2.524 J/K/mol	–
6.24 K	–	3.263 J/K/mol
6.3 K	2.928 J/K/mol	–
6.6 K	–	3.776 J/K/mol
6.66 K	3.407 J/K/mol	–
6.96 K	–	4.337 J/K/mol
7.03 K	3.928 J/K/mol	–
7.33 K	–	4.94 J/K/mol
7.4 K	4.511 J/K/mol	–
7.7 K	–	5.576 J/K/mol
7.78 K	5.114 J/K/mol	–
8.08 K	–	6.258 J/K/mol
8.15 K	5.768 J/K/mol	–
8.46 K	–	6.988 J/K/mol
8.54 K	6.47 J/K/mol	–
8.84 K	–	7.752 J/K/mol
8.92 K	7.205 J/K/mol	–
9.23 K	–	8.549 J/K/mol
9.31 K	7.974 J/K/mol	–
9.61 K	–	9.38 J/K/mol
9.7 K	8.786 J/K/mol	–
10 K	9.42 J/K/mol	10.23 J/K/mol and 10.24 J/K/mol
10.1 K	9.617 J/K/mol	–
10.5 K	–	11.4 J/K/mol
10.6 K	10.74 J/K/mol	–
11.11 K	–	12.83 J/K/mol
11.21 K	12.14 J/K/mol	–
11.73 K	–	14.33 J/K/mol
11.82 K	13.61 J/K/mol	–
12.34 K	–	15.89 J/K/mol
12.44 K	15.14 J/K/mol	–
12.96 K	–	17.5 J/K/mol
13.07 K	16.72 J/K/mol	–
13.58 K	–	19.15 J/K/mol
13.69 K	18.35 J/K/mol	–
14.2 K	–	20.8 J/K/mol
14.32 K	20 J/K/mol	–
14.83 K	–	22.52 J/K/mol
14.96 K	21.77 J/K/mol	–
15 K	21.91 J/K/mol	23.07 J/K/mol
15.57 K	–	24.74 J/K/mol
15.71 K	23.92 J/K/mol	–
16.43 K	–	27.33 J/K/mol
16.57 K	26.44 J/K/mol	–
17.29 K	–	29.78 J/K/mol
17.43 K	28.91 J/K/mol	–
18.15 K	–	32.35 J/K/mol
18.3 K	31.39 J/K/mol	–
19.01 K	–	34.88 J/K/mol
19.17 K	33.9 J/K/mol	–
19.88 K	–	37.39 J/K/mol
20 K	36.32 J/K/mol	37.79 J/K/mol
20.05 K	36.43 J/K/mol	–
21.09 K	–	41.05 J/K/mol
21.26 K	40.04 J/K/mol	–
22.65 K	–	45.73 J/K/mol
22.82 K	44.72 J/K/mol	–
24.21 K	–	50.47 J/K/mol
24.39 K	49.42 J/K/mol	–
25 K	51.22 J/K/mol	52.78 J/K/mol
25.78 K	–	55.12 J/K/mol
25.97 K	54.13 J/K/mol	–
27.35 K	–	59.68 J/K/mol
27.55 K	58.67 J/K/mol	–
28.87 K	–	64.05 J/K/mol
29.08 K	63.06 J/K/mol	–
30 K	65.66 J/K/mol	67.29 J/K/mol
30.42 K	–	68.44 J/K/mol
30.66 K	67.49 J/K/mol	–
32.16 K	–	73.29 J/K/mol
32.42 K	72.33 J/K/mol	–
34.07 K	–	78.36 J/K/mol
34.34 K	77.4 J/K/mol	–
35 K	79.1 J/K/mol	80.71 J/K/mol
35.98 K	–	83.21 J/K/mol
36.27 K	82.31 J/K/mol	–
37.9 K	–	87.91 J/K/mol
38.19 K	87.1 J/K/mol	–
39.82 K	–	92.51 J/K/mol
40 K	91.48 J/K/mol	92.99 J/K/mol
40.12 K	91.75 J/K/mol	–
41.83 K	–	97.3 J/K/mol
42.14 K	96.59 J/K/mol	–
43.94 K	–	102.2 J/K/mol
44.27 K	101.5 J/K/mol	–
45 K	103.2 J/K/mol	104.6 J/K/mol
46.06 K	–	107 J/K/mol
46.4 K	106.3 J/K/mol	–
48.18 K	–	111.7 J/K/mol
48.53 K	111 J/K/mol	–
50 K	114.1 J/K/mol	115.6 J/K/mol
50.3 K	–	116.2 J/K/mol
50.66 K	115.5 J/K/mol	–
52.42 K	–	120.6 J/K/mol
52.79 K	119.8 J/K/mol	–
54.54 K	–	124.8 J/K/mol
54.93 K	124 J/K/mol	–
56.66 K	–	128.7 J/K/mol
57.07 K	128 J/K/mol	–
58.79 K	–	132.7 J/K/mol
59.21 K	131.9 J/K/mol	–
60 K	133.3 J/K/mol	135 J/K/mol
60.93 K	–	136.6 J/K/mol
61.36 K	135.7 J/K/mol	–
63.07 K	–	140.4 J/K/mol
63.51 K	139.5 J/K/mol	–
65.21 K	–	144.2 J/K/mol
65.66 K	143 J/K/mol	–
67.34 K	–	147.9 J/K/mol
67.81 K	146.6 J/K/mol	–
69.48 K	–	151.6 J/K/mol
69.96 K	150.1 J/K/mol	–
70 K	150.1 J/K/mol	152.5 J/K/mol
71.72 K	–	155.5 J/K/mol
72.22 K	153.7 J/K/mol	–
74.07 K	–	159.5 J/K/mol
74.59 K	157.4 J/K/mol	–
76.42 K	–	163.4 J/K/mol
76.96 K	161 J/K/mol	–
78.77 K	–	167.3 J/K/mol
79.33 K	164.5 J/K/mol	–
79.7 K	165.1 J/K/mol	–
80 K	165.4 J/K/mol	169.5 J/K/mol
80.09 K	165.7 J/K/mol	–
80.17 K	–	169.7 J/K/mol
81.13 K	–	171.2 J/K/mol
81.61 K	167.8 J/K/mol	–
81.71 K	167.9 J/K/mol	–
81.87 K	168.2 J/K/mol	–
81.93 K	–	172.6 J/K/mol
83.39 K	170.3 J/K/mol	–
83.49 K	–	175 J/K/mol
83.65 K	170.6 J/K/mol	–
83.69 K	–	175.5 J/K/mol
84.09 K	171.2 J/K/mol	–
85.19 K	172.7 J/K/mol	–
85.45 K	173.2 J/K/mol	–
85.46 K	–	178.2 J/K/mol
87 K	175.2 J/K/mol	–
87.24 K	–	181 J/K/mol
87.26 K	175.7 J/K/mol	–
88.81 K	177.8 J/K/mol	–
89.03 K	–	183.9 J/K/mol
89.08 K	178.2 J/K/mol	–
90 K	179.5 J/K/mol	185.3 J/K/mol
90.64 K	180.3 J/K/mol	–
90.83 K	–	186.6 J/K/mol
90.9 K	180.7 J/K/mol	–
92.07 K	–	188.5 J/K/mol
92.47 K	182.7 J/K/mol	–
92.64 K	–	189.3 J/K/mol
92.74 K	183.1 J/K/mol	–
93.91 K	–	191.2 J/K/mol
94.31 K	185.2 J/K/mol	–
94.58 K	185.6 J/K/mol	–
95.76 K	–	193.9 J/K/mol
96.17 K	187.6 J/K/mol	–
96.43 K	187.9 J/K/mol	–
97.6 K	–	196.8 J/K/mol
98.02 K	190.1 J/K/mol	–
98.29 K	190.4 J/K/mol	–
99.45 K	–	199.4 J/K/mol
99.89 K	192.4 J/K/mol	–
100 K	192.5 J/K/mol	200.2 J/K/mol
100.16 K	192.7 J/K/mol	–
101.31 K	–	202.1 J/K/mol
101.76 K	194.8 J/K/mol	–
102.03 K	195.1 J/K/mol	–
103.16 K	–	204.8 J/K/mol
103.64 K	197.2 J/K/mol	–
103.91 K	197.5 J/K/mol	–
105.01 K	–	207.5 J/K/mol
105.53 K	199.4 J/K/mol	–
105.8 K	199.8 J/K/mol	–
106.87 K	–	210.2 J/K/mol
107.42 K	201.7 J/K/mol	–
107.69 K	202.1 J/K/mol	–
108.73 K	–	212.9 J/K/mol
109.32 K	204.1 J/K/mol	–
109.58 K	204.4 J/K/mol	–
110 K	204.9 J/K/mol	214.7 J/K/mol
110.6 K	–	215.5 J/K/mol
111.22 K	206.4 J/K/mol	–
111.49 K	206.7 J/K/mol	–
112.46 K	–	218.2 J/K/mol
113.12 K	208.7 J/K/mol	–
113.39 K	209 J/K/mol	–
114.33 K	–	220.8 J/K/mol
115.03 K	210.9 J/K/mol	–
115.3 K	211.2 J/K/mol	–
116.2 K	–	223.4 J/K/mol
116.94 K	213.1 J/K/mol	–
117.21 K	213.4 J/K/mol	–
118.07 K	–	226.1 J/K/mol
118.86 K	215.4 J/K/mol	–
119.13 K	215.7 J/K/mol	–
119.94 K	–	228.8 J/K/mol
120 K	216.7 J/K/mol	229 J/K/mol
120.78 K	217.6 J/K/mol	–
121.05 K	218 J/K/mol	–
121.81 K	–	231.5 J/K/mol
122.7 K	219.9 J/K/mol	–
122.97 K	220.2 J/K/mol	–
123.69 K	–	234.2 J/K/mol
124.63 K	222.1 J/K/mol	–
124.9 K	222.4 J/K/mol	–
125.57 K	–	237 J/K/mol
126.55 K	224.3 J/K/mol	–
126.83 K	224.6 J/K/mol	–
127.44 K	–	239.7 J/K/mol
128.49 K	226.5 J/K/mol	–
128.76 K	226.8 J/K/mol	–
129.32 K	–	242.4 J/K/mol
130 K	228.2 J/K/mol	243.4 J/K/mol
130.42 K	228.7 J/K/mol	–
130.69 K	229 J/K/mol	–
131.2 K	–	245.1 J/K/mol
132.35 K	230.9 J/K/mol	–
132.62 K	231.1 J/K/mol	–
133.08 K	–	248 J/K/mol
134.29 K	233.1 J/K/mol	–
134.56 K	233.4 J/K/mol	–
134.97 K	–	250.8 J/K/mol
136.23 K	235.3 J/K/mol	–
136.5 K	235.6 J/K/mol	–
136.86 K	–	253.6 J/K/mol
138.16 K	237.5 J/K/mol	–
138.44 K	237.8 J/K/mol	–
138.74 K	–	256.4 J/K/mol
140 K	239.7 J/K/mol	258.2 J/K/mol
140.11 K	239.7 J/K/mol	–
140.38 K	240 J/K/mol	–
140.63 K	–	259.2 J/K/mol
142.05 K	242 J/K/mol	–
142.32 K	242.3 J/K/mol	–
142.52 K	–	262 J/K/mol
143.99 K	244.3 J/K/mol	–
144.26 K	244.6 J/K/mol	–
144.42 K	–	264.9 J/K/mol
145.93 K	246.5 J/K/mol	–
146.2 K	246.8 J/K/mol	–
146.31 K	–	267.8 J/K/mol
147.87 K	248.8 J/K/mol	–
148.14 K	249 J/K/mol	–
